Experimental data as given in patent US20240342138A1, “MICROTUBULE TARGETING AGENTS” (BPGbio, Inc., priority 2023, published 2024).

Experiments:
HCT116 cells = experiment: Kinetochore assembly, immunocytochemistry / confocal microscopy; assay type: cell-based; conditions: 300 nM, 24h
Method: The HCT116 cells were cultured using DMEM media supplemented with 10% FBS and 1% Pen/Strep. Cells were maintained to a maximum of 80% confluency before being split and plated into coverslips in 12-well plates.
1. HCT116 cells were plated on Poly-D-Lysine German Glass Coverslips (#1.5, 18 mm)
2. After 24h cells were treated with 300 nM of Compound 1 and Nocodozole.
3. After 24h cells were washed briefly with PBS and fixed with warm 4% paraformaldehyde at room temperature for 10 min.
4. Cells were permeabilized and blocked in 10% goat serum, 0.5% Triton-X in PBS for 1 hr.
5. Cells were incubated with Primary antibodies overnight.
6. Washed 3× with PBS for 10 min
7. Incubated with secondary antibodies at room temperature for 1 hr.
8. Washed 3× with PBS for 10 min
9. Coverslips were mounted with ProLong Gold Anti-Fade Mount with DAPI and imaged with Olympus FV1200 MPE Microscope.
10. Images were collected with identical confocal settings for all of the samples and Z-stacked images were projected with maximal projection mode using Fluor View Software.
1. Selected cells of interest using the drawing/selection tools (i.e. rectangle, circle, polygon or freeform).
2. From the Analyze menu selected “Measure.”
3. Selected region with no fluorescence to be my background.
4. Repeated these steps for other cells in the field of view
5. Used the CTCF formula to calculate Mad1 expression:
CTCF=Integrated Density−(Area of selected cell×Mean fluorescence of background readings)
Micrographs were imaged using Olympus FV1200 MPE confocal microscope at 63× oil. White arrows indicate dividing cells. Representative images of N=3 biological replicates. Significance in difference of treated HCT116 cells to untreated cells was tested by Student t test (** p<0.01).

COLO205 tumors = experiment: Colorectal cancer xenograft model; assay type: in vivo, nude mice
Method: FIG. 11A-11E show the efficacy of Compound 1 in a colorectal cancer xenograft model (COLO205). A) In vitro potency of Compound 1 in COLO205 cells as evaluated by ATPlite 1Step™ Perkin Elmer (performed by NTRC Oncolines). B) COLO205 cells were implanted subcutaneously in nude mice and tumors were allowed to grow to a volume of 210 mm3 followed by randomization of animals into three (3) groups (vehicle control, 75 mg/kg, 150 mg/kg Compound 1) with 12 animals per group. A Compound 1 solid dispersion was prepared prior to each dosing and administered by oral gavage two times a day (BID). Mean tumor volume of each group over time and the growth of tumor in each individual animal was graphed. For each individual animal of […] group TGI (%) was calculated based on the tumor growth inhibition of individual tumor at each given day of the study compared to the average of the group for that given day of the study. P-values were calculated using two-tailed distribution and two-sample equal variance (homoscedastic) for each group treated with Compound 1 for each given day of the study in reference to vehicle control. NS p>0.05; *p≤0.05; **p≤0.01; ***p p≤0.001; **** p≤0.0001. C) Plasma and tumor tissues from vehicle (n=11), 75 mg/kg (n=12), and 150 mg/kg (n=11) groups were harvested at the end of the study. The concentration of Compound 1 in the plasma or tumor tissue was plotted as a column plot (Average t SEM) or Scatter Plot with Median. D) Tumor tissues from vehicle (n=11), 75 mg/kg (n=12) and 150 mg/kg (n=11) groups were harvested at the end of the study when each animal was sacrificed. The level of two biomarkers, pHH3 and CCNB1 in each tissue was measured and graphed as the Min-to-Max plot and scatter plot of the level of each biomarker. The line in the scatter plot indicates the group mean. E) Body weight of each individual animal was measured on each day of the study and graphed using Graphpad Prism.
Anti-tumor efficacy of Compound 1 was evaluated against three (3) different preclinical oncology mice models of colorectal cancer, prostate cancer, and lung adenocarcinoma (see Table 5 below). For this purpose, an oral formulation of Compound 1 was used.
COLO205 is a colorectal adenocarcinoma (Dukes' Type D) cell line of epithelial origin isolated from human colon. COLO205 is a model that is well validated in the cancer field for in vivo efficacy evaluation of oncology therapeutics. Nude mice were implanted subcutaneously with COLO205 cells and tumors were grown to an average tumor volume of 113 mm^3 followed by randomization into three (3) groups consisting of vehicle control, 75 mg/kg and 150 mg/kg Compound 1 (12 animals per group). A Compound 1 solid dispersion was administered by oral gavage two times a day (BID). Originally, the study was planned for 28 days of dosing; however, several animals left the study after 17 days of dosing due to tumor size reaching the limit of 2000 mm^3. Therefore, only the data for the first 17 days of dosing were used for the analysis. Additionally, one animal from vehicle group and one animal from 150 mg/kg group left the study prior to day 17 and were therefore removed from the analysis. The percentage of tumor growth inhibition (TGI %) was calculated for each individual animal.

COc1ccccc1-c1nc(CNC(=O)c2ccccc2OC(F)F)n[nH]1 [Compound 1, 2-(difluoromethoxy)-N-[[5-(2-methoxyphenyl)-1H-1,2,4-triazol-3-yl]methyl]benzamide]
Mitotic spindle formation (HCT116 cells; FIG. 4A): lack of proper mitotic spindle formation | Mad1 signal intensity (HCT116 cells; FIG. 4B): increase in Mad1 signal intensity | TGI (%) (COLO205 tumors; 75 mg/kg BID oral, day 17): 20.13% | Maximum TGI (%), end of the study (COLO205 tumors; 150 mg/kg BID oral, day 17): 35.38% | Body weight (COLO205 tumors; 150 mg/kg group, FIG. 11E): no significant body weight change by the end of the study | Level of Compound 1 in plasma and tumor tissue (COLO205 tumors; 75 vs 150 mg/kg, end of study, FIG. 11C): dose-dependent elevation | cyclin B1 and phospho Histone H3 (pHH3) in tumor tissue (COLO205 tumors; markers of M phase arrest, FIG. 11D): increase
